In the assay the target is T1, RHD alpha subunit (RhdA, RS30940) (Pseudomonas aeruginosa, UniProt Q9HTF4).
T1 construct: gene gbcA; alpha subunit alone, 428 residues, His-tagged, pET-28a (NdeI/EcoRI), E. coli BL21 Star (DE3); no tag removal told
T1 sequence (Q9HTF4 1-429): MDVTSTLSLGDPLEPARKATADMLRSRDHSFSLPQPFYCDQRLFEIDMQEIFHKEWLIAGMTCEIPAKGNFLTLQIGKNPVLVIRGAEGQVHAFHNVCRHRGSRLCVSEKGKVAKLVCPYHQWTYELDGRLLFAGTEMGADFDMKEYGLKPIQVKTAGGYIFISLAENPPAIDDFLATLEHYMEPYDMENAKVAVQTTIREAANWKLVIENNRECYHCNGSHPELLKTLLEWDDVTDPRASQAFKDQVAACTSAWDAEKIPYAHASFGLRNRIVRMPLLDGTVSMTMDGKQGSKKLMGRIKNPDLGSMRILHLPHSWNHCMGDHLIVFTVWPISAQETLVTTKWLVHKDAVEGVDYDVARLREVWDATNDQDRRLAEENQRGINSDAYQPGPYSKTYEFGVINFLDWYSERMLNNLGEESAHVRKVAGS
Put plainly: intrinsic tryptophan fluorescence quenching (Stern-Volmer). The format is binding. As to conditions: phosphate buffer pH 7.5; 5.0 x 10^-6 mol/L protein; 298, 304 and 310 K; excitation 278 nm.

As for `c1ccc2c(c1)-c1cccc3cccc-2c13` [fluoranthene], the Stern-Volmer parameters result is “intrinsic fluorescence of RHD alpha subunit could be quenched by fluoranthene”.

The record behind these values is paper PMC8556375, “Binding interaction of a ring-hydroxylating dioxygenase with fluoranthene in Pseudomonas aeruginosa DN1” (Scientific Reports, 2021).
